The record followed here is PMC7504360 (International Journal of Molecular Sciences, 2020).

In data set [1] the test system is RAW264.7 cells. Kind of data set: Cytotoxicity, WST-8 cell proliferation assay. Particulars: 24 h, WST-8, 450 nm, mean of three experiments. Type of data set: cell-based, mouse. As to the method: Murine RAW264.7 macrophage cells were purchased from Korean Cell Line Bank (Seoul, South Korea). The cells were cultured in Dulbecco modified Eagle medium (DMEM) (Thermo Fischer Scientific Inc., MA, USA) supplemented with 10% fetal bovine serum, 100 U/mL penicillin, and […] streptomycin at 37 °C in a humidified 5% CO2 incubator. The cytotoxicity of peptides against RAW264.7 cells was determined using WST-8 Cell Proliferation Assay Kit (Biomax Co.,Ltd, Seoul, South Korea). Briefly, cells (1 × 10^5) were seeded in 96-well plated and then treated with 3.125, 6.25, 12.5, 25, and 50 μM of respective peptides for 24 h followed by addition of 10 μL of the WST-8 reagent for another 3 h incubation at 37 °C. The color intensity was read at 450 nm using a microplate reader.
(In general: Tetrazolium assays rely on reduction of a dye to a coloured formazan, in cell work by metabolically active cells.)

The subject of data set [2] is sheep red blood cells (sRBCs). Put plainly: Hemolytic activity. Type of data set: cell-based. As to the method:
The hemolytic activity of all Pro-peptides were tested against sheep red blood cells (sRBCs) as described in previous reports. Fresh sRBCs were washed three times with phosphate-buffered saline (PBS) followed by centrifugation for 5 min at 2500 rpm at 4 °C. Peptides (0.2 to 100 μM) in PBS were incubated with 4% (v/v) sRBCs for 1 h at 37 °C. The contents were then centrifuged for 5 min at 1000 × g. The absorbance of the supernatant at 405 nm was used as a measure of hemolysis, and three times independent measurements were averaged. As a control, 100% hemolysis was obtained by treating sRBCs with melittin.

The test system of data set [3] is MDREC 1238 (E. coli CCARM 1238). The source says: (§1) Two strains of gram-negative bacteria, namely E. coli (KCTC 1682) and A. baumannii (KCCM 40203) from the Korean Collection for Type Cultures (KCTC) (Taejon, Korea) and Korean Culture Center of Microorganisms (KCCM) (Seoul, South Korea). Escherichia coli K1 strain RS218 (O18:K1:H7) was a gift from Prof. Jang-Won Yoon in Kangwon National University (Chuncheon, South Korea). Multidrug-resistant gram-negative bacteria (E. coli CCARM 1229, E. coli CCARM 1238, A. baumannii CCARM 12010, and A. baumannii CCARM 12220) were obtained from the Culture Collection of Antibiotic-Resistant Microbes (CCARM) at Seoul Women’s University (Seoul, South Korea).
(§2) Briefly, the microplates were inoculated with two-fold serial dilutions of each peptides in Mueller–Hinton (MH) media and then seeded with log-phase culture of aforementioned bacterial suspensions (2 × 10^5 CFU/mL). The microplates were incubated for 16 h at 37 °C, and absorbance was read at 600 nm using microplate reader SpectraMAX (Molecular Devices, San Jose, CA, USA).

Data set [4] relates to E. Coli.
Text: as §1, §2

Data set [5] relates to A. baumannii (KCCM 40203).
Text: as §1, §2

Data set [6] has as its system MDRAB 12220 (A. baumannii CCARM 12220).
Text: as §1, §2

Data set [7] concerns MDRAB 12010 (A. baumannii CCARM 12010).
Text: as §1, §2

Data set [8] deals with MDREC 1229 (E. coli CCARM 1229).
Text: as §1, §2

Data set [9] can be described thus: LPS neutralization, limulus amebocyte lysate (LAL) assay. Type of data set: biochemical, Escherichia coli O111:B4. Particulars: 50 μM peptide, 20 ng/mL LPS, 30 min at 37 °C, LAL chromogenic kit, 405 nm; triplicate. On the procedure:
The LPS-neutralizing activity of all peptides was determined using the Pierce LAL chromogenic endotoxin quantitation kit (ThermoFisher Scientific, MA, USA). All peptides including standard (Polymixin B) at varying concentrations (3.12, 6.25, 12.5, 25, and 50 μM in endotoxin-free water) were allowed to bind with 20 ng/mL of LPS in a 96-well plate for 30 min at 37 °C. To this, an equal volume (10 μL) of LAL reagent was added and incubated for 10 min at 37 °C and then 20μL of LAL chromogenic substrate was added. After 15 min incubation at 37 °C, the reaction was stopped by 25% acetic acid and the reduction in yellow color formation due to the substrate was measured at 405 nm on an absorbance microplate reader. The experiment was conducted in triplicate, and the changes in absorbance due to peptide-LPS interaction are indicated as percent LPS neutralization.

The subject of data set [10] is chymotrypsin. Kind of data set: Protease stability assay (antimicrobial activity after protease digestion). Type of data set: in vitro ADME. Particulars: peptide–enzyme 10,000:1, PBS, 6 h at 37 °C preincubation, then E. coli and A. baumannii 2 × 10^5 CFU/mL, 16 h at 37 °C, 600 nm, repeated three times. On the procedure: (§3) For stability analysis, all Pro-peptides at their MICs were incubated with trypsin and chymotrypsin at the ratio of 10,000:1 (peptide–enzyme) in PBS for 6 h at 37 °C. After incubation, 100 μL of peptide-protease mixture was added to the 100 μL bacterial suspension (E. coli and A. baumannii, 2 × 10^5 CFU/mL) and further incubated for 16 h at 37 °C. Melittin was used as standard peptide, and bacterial suspension without peptide and protease served as control. The experiment was repeated three times, and the extent of bacterial growth was measured at 600 nm using a microplate reader.

In data set [11] the test system is Standard gram-negative bacteria. Particulars: table row printed 'Standard gram-negative bacteria'; MH media, 2 × 10^5 CFU/mL, 16 h at 37 °C, absorbance 600 nm; average of three measurements.
Text: as §1, §2

For data set [12], the system named is trypsin. Put plainly: Protease stability assay (antimicrobial activity after protease digestion). Particulars: peptide–enzyme 10,000:1, PBS, 6 h at 37 °C preincubation, then E. coli and A. baumannii 2 × 10^5 CFU/mL, 16 h at 37 °C, 600 nm, repeated three times. Type of data set: in vitro ADME. As to the method: as §3
For data set [13], the system named is all bacterial strains. Put plainly: Mean MIC over all bacterial strains (GM). Type of data set: cell-based. Particulars: mean MIC of all bacterial strains of Table 2. On the procedure:
as §2

Read-outs that look alike come from different tables or passages of the source. Square brackets hold non-standard residues; d marks the D form. Peptide text beside a SMILES is read from it. A value given as a limit tells only on which side of the number the result lay.

Turning to `CC[C@@H](C)[C@@H](NC(=O)[C@@H](C)NC(=O)[C@@H](CC(C)C)NC(=O)[C@@H](Cc1c[nH]c2ccccc12)NC(=O)[C@@H](CC(C)C)NC(=O)[C@H](N)CCCNC(=N)N)C(=O)N[C@H](Cc1c[nH]c2ccccc12)C(=O)N[C@H](CCCNC(=N)N)C(=O)N[C@H](CCCNC(=N)N)C(N)=O` [Pro9-3D] (H-[dR][dL][dW][dL][dA][dI][dW][dR][dR]-NH2), the “survival rate of RAW264.7 cells” value in data set [1] (25 μM) is listed as 68%; in data set [1] (50 μM) it was 51.8%. Further, the “HC10 (peptide concentration inducing 10% hemolysis)” value in data set [2] (red cells of sheep, 1 h) was determined as 200 µM. For the same molecule, the “Minimal Inhibitory Concentration (MIC100)” value in data set [3] (CCARM 1238, 16 h) was found to be 4 µM; in data set [4] (16 h) it was 4 µM; in [5] (KCCM 40203, 16 h), 4 µM; in data set [6] (CCARM 12220, 16 h) it was 8 µM; in [7] (CCARM 12010, 16 h) it was 8 µM; in data set [8] (CCARM 1229, 16 h), 8 µM.

On to polymyxin B [reference compound], for which, in data set [9], the “inhibition of the activation of LPS (LPS neutralization)” value was found to be 67.4%.

`CC[C@H](C)[C@H](NC(=O)[C@H](C)NC(=O)[C@H](CC(C)C)NC(=O)[C@H](Cc1c[nH]c2ccccc12)NC(=O)[C@H](CC(C)C)NC(=O)[C@@H](N)CCCNC(=N)N)C(=O)N[C@@H](Cc1c[nH]c2ccccc12)C(=O)N[C@@H](CCCNC(=N)N)C(=O)N[C@@H](CCCNC(=N)N)C(N)=O` [Pro9-3] (H-RLWLAIWRR-NH2): the “survival rate of RAW264.7 cells” value in data set [1] (25 μM) was determined as 95%; in data set [1] (50 μM) it was 94%. The “HC10 (peptide concentration inducing 10% hemolysis)” value in [2] (red cells of sheep, 1 h) was 200 µM. Moreover, in data set [10], the “peptide concentration up to which bacterial growth was not inhibited in the presence of protease” value was above 64 µM. For the same molecule, the “Minimal Inhibitory Concentration (MIC100)” value was 32 µM in data set [3] (CCARM 1238, 16 h); 16 µM in data set [4] (16 h); 16 µM in data set [5] (KCCM 40203, 16 h); 16 µM in [6] (CCARM 12220, 16 h); 16 µM in [7] (CCARM 12010, 16 h); 16 µM in data set [8] (CCARM 1229, 16 h). For the same molecule, in data set [11], the “Minimal Inhibitory Concentration (MIC100)” value is 16 µM.

In the case of `CC[C@H](C)[C@H](NC(=O)[C@H](C)NC(=O)[C@H](CC(C)C)NC(=O)[C@H](Cc1c[nH]c2ccccc12)NC(=O)[C@H](CC(C)C)NC(=O)[C@H](CCCNC(=N)N)NC(=O)[C@@H](N)CCCNC(=N)N)C(=O)N[C@@H](Cc1c[nH]c2ccccc12)C(=O)N[C@@H](CCCNC(=N)N)C(=O)N[C@@H](CCCNC(=N)N)C(N)=O` [Pro10-1] (H-RRLWLAIWRR-NH2), the “survival rate of RAW264.7 cells” value in data set [1] (25 μM) stood at 90%; in [1] (50 μM), 87%. In addition, the hemolysis result in data set [2] (100 μM peptide, 4% (v/v) sRBCs in PBS, 1 h at 37 °C, absorbance 405 nm, three measurements averaged) is listed as “no hemolytic activity”. Moreover, the “HC10 (peptide concentration inducing 10% hemolysis)” value in data set [2] (heparinized sheep red blood cells, 200 μM entered when no detectable hemolysis was observed at 100 μM) was determined as 200 µM. In addition, the “peptide concentration up to which bacterial growth was not inhibited in the presence of protease” value in [12] and in [10] was above 64 µM throughout. For the same molecule, the “Minimal Inhibitory Concentration (MIC100)” value in data set [3] (MDREC 1238, MH media, 2 × 10^5 CFU/mL, 16 h at 37 °C, absorbance 600 nm, average of three measurements) was 32 µM; in data set [4] (table row printed 'E. Coli', MH media, 2 × 10^5 CFU/mL, 16 h at 37 °C, absorbance 600 nm, average of three measurements), 16 µM; in data set [5] (A. baumannii, MH media, 2 × 10^5 CFU/mL, 16 h at 37 °C, absorbance 600 nm, average of three measurements), 8 µM; in [6] (MDRAB 12220, MH media, 2 × 10^5 CFU/mL, 16 h at 37 °C, absorbance 600 nm, average of three measurements) it was 16 µM; in [7] (MDRAB 12010, MH media, 2 × 10^5 CFU/mL, 16 h at 37 °C, absorbance 600 nm, average of three measurements) it was 8 µM; in data set [8] (MDREC 1229, MH media, 2 × 10^5 CFU/mL, 16 h at 37 °C, absorbance 600 nm, average of three measurements), 8 µM. Further, the “Minimal Inhibitory Concentration (MIC100)” value in [11] worked out at 16 µM.

For the molecule `CC[C@H](C)[C@H](NC(=O)CN)C(=O)NCC(=O)N[C@@H](C)C(=O)N[C@H](C(=O)N[C@@H](CC(C)C)C(=O)N[C@@H](CCCCN)C(=O)N[C@H](C(=O)N[C@@H](CC(C)C)C(=O)N[C@H](C(=O)N[C@H](C(=O)NCC(=O)N[C@@H](CC(C)C)C(=O)N1CCC[C@H]1C(=O)N[C@@H](C)C(=O)N[C@@H](CC(C)C)C(=O)N[C@H](C(=O)N[C@@H](CO)C(=O)N[C@@H](Cc1c[nH]c2ccccc12)C(=O)N[C@H](C(=O)N[C@@H](CCCCN)C(=O)N[C@@H](CCCNC(=N)N)C(=O)N[C@@H](CCCCN)C(=O)N[C@@H](CCCNC(=N)N)C(=O)N[C@@H](CCC(N)=O)C(=O)N[C@@H](CCC(N)=O)C(N)=O)[C@@H](C)CC)[C@@H](C)CC)[C@@H](C)O)[C@@H](C)O)C(C)C)C(C)C` [Melittin, reference compound], the “GM (geometric mean of MIC values of all bacterial strains)” value in data set [13] was 12.0 µM.
